Laboratory results as given in article PMC11237774, “On-target, dual aminopeptidase inhibition provides cross-species antimalarial activity” (mBio, 2024).
Where two headings read alike, the source gives them in different places.

Columns and labels:
[1] = test system: PfNF54-s16-GFP late (IV–V) stage gametocytes; test: Image-based gametocyte viability assay; assay type: cell-based, P. falciparum; details: Plasmodium falciparum; stages IV–V, 72 h; read-out: IC50 Late-stage Gametocytes (mean ± SD)
Description: (§1) Viability assays were performed as described previously ([32], [33]) against PfNF54-s16-GFP early(I–III), late (IV–V), and mature (V) stage gametocytes. Gametocytes were assessed at the appropriate time points following gametogenesis; early stage (day 2), late stage (day 8), and mature stage (day 12). Compounds diluted in 4% DMSO were transferred into 384-well imaging plates; gametocytes prepared as described previously (35) were added, and plates were incubated for 72 h in 5% CO2, 5% O2, and 60% humidity at 37°C. After 72 h incubation, 5 µL of MitoTracker Red CMH2XRos in phosphate buffered saline (PBS) was added per well, and plates were incubated overnight. Image acquisition and analysis were undertaken on the Opera QEHS micro-plate confocal imaging system. An Acapella-based script using the CMH2XRos fluorescent signal and the GFP-designated object quantifying viable stage-dependent parasite morphology identified gametocytes. Gametocyte viability was calculated as a percentage of the positive (5 µM puromycin) and negative (0.4% DMSO) controls. IC50 values were calculated using a 4-parameter log dose, non-linear regression analysis, with sigmoidal dose response (variable slope) curve fit using GraphPad Prism (ver 4.0). No constraints were used in the curve fit. […] Experiments were performed as two or three biological replicates in duplicate.

[2] = test system: PfNF54-s16-GFP mature (V) stage gametocytes; test: Image-based gametocyte viability assay; assay type: cell-based, P. falciparum; details: Plasmodium falciparum, 72 h, read-out: IC50 Mature-stage Gametocytes (mean ± SD)
Description: as §1

[3] = molecular target: Pb-M1 (Plasmodium berghei, UniProt A0A509ATR4); test: Recombinant aminopeptidase fluorescence assay (H-Leu-NHMec); assay type: biochemical
Chain of Pb-M1 (A0A509ATR4 entry or part of it): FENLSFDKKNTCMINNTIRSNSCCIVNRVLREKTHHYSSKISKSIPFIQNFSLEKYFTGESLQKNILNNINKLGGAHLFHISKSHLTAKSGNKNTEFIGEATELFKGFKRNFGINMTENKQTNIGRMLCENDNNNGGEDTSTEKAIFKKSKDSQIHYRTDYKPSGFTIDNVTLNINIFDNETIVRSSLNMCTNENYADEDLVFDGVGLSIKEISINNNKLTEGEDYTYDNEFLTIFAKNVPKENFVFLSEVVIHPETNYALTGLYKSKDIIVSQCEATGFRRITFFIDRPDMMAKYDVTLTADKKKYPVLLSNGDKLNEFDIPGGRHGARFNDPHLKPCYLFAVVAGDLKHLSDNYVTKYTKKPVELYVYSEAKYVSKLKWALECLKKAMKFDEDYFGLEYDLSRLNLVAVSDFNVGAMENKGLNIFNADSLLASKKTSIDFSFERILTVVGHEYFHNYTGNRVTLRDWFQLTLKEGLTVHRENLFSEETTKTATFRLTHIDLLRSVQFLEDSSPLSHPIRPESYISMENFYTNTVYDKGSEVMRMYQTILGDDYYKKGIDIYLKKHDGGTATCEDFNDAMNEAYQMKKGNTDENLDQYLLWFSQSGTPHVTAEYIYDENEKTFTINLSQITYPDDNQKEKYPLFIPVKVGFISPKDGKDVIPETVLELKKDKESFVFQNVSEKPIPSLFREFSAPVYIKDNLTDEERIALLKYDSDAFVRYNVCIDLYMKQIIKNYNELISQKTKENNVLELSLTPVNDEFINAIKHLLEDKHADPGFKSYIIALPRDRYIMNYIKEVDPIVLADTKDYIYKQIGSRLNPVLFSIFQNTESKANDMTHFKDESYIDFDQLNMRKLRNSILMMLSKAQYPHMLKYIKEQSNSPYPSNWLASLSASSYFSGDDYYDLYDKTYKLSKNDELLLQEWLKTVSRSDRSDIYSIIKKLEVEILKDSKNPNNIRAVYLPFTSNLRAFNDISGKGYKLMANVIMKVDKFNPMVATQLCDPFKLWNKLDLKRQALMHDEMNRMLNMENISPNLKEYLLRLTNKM
Description: (§2) Inhibition of aminopeptidase activity assays were performed against nine aminopeptidases: the M1 alanyl and M17 leucyl aminopeptidases from P. falciparum (PfA-M1; PfA-M17), P. vivax (Pv-M1; Pv-M17), and P. berghei (Pb-M1; Pb-M17), and three human M1 homologs: LTA4H (OriGene TP307617), ERAP1 (OriGene TP314469), and ERAP2 (Creative BioMart ERAP2-304H). The Plasmodium enzymes were produced recombinantly as described previously ([16], [17]), and the human recombinant enzymes were purchased from commercial suppliers as indicated.
(§3) The concentration of H-Leu-NHMec in the assay was held constant for each enzyme and ranged from 10 to 100 µM, depending on the enzyme. Reactions were measured at 37°C in white 384-well plates in a total volume of 25 or 50 µL using a spectrofluorimeter (BMG FLUOstar) with excitation at 355 nm and emission at 460 nm. The fluorescence signal was continuously monitored until a final steady-state velocity, v, was obtained. Inhibition constants were calculated from biological triplicates made from three different protein preparations.
(§4) Substrate concentrations were selected to allow sensitive detection of enzyme activity while not exceeding the Km for each enzyme. A compound concentration range was selected to obtain a complete inhibition curve (0%–100 %) in biological triplicate. Where possible, the Ki values were calculated by plotting the initial rates versus inhibitor concentration and fitting to the Morrison equation for tight-binding inhibitors in GraphPad Prism (V.8.4.1; non-linear regression method).

[4] = molecular target: T1, ERAP2 (Homo sapiens, UniProt Q6P179); test: as above; assay type: biochemical; details: for inhibition at 1.25 µM: ERAP2, 1.25 µM compound; for inhibition at 10 µM: ERAP2, 10 µM compound; for inhibition at 500 µM: ERAP2, 500 µM compound; for inhibition at 1000 µM: ERAP2, 1000 µM compound
T1 construct: purchased Creative BioMart ERAP2-304H
T1 sequence (Q6P179 whole entry): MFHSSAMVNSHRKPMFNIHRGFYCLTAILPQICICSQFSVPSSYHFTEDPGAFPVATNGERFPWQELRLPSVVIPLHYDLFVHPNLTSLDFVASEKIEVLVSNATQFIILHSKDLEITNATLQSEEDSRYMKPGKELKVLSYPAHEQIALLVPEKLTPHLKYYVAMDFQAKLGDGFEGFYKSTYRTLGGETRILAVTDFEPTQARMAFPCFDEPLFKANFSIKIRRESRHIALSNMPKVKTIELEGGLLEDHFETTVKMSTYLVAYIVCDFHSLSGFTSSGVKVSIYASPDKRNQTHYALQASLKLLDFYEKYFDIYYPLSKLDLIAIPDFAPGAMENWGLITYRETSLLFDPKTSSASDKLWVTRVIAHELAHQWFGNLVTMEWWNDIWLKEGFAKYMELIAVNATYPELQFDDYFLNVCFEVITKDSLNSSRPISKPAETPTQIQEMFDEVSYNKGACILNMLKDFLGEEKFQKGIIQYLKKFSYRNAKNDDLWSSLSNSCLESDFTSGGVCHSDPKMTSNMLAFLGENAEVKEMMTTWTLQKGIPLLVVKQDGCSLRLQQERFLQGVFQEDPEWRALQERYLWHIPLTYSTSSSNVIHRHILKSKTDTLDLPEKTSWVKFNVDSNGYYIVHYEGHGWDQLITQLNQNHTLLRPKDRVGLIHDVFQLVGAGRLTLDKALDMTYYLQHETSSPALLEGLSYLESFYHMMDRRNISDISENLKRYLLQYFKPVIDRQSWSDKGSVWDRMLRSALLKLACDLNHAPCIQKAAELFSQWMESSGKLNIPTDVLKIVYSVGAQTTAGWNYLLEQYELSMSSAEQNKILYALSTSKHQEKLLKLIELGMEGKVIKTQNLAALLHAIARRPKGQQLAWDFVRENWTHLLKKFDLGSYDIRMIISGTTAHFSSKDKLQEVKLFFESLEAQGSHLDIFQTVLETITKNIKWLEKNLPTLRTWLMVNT
Description: as §2, §3, §4

[5] = molecular target: T2, ERAP1 (Homo sapiens, UniProt Q9NZ08); test: as above; assay type: biochemical; details: for inhibition at 1.25 µM: ERAP1, 1.25 µM compound; for inhibition at 10 µM: ERAP1, 10 µM compound; for inhibition at 500 µM: ERAP1, 500 µM compound; for inhibition at 1000 µM: ERAP1, 1000 µM compound
T2 construct: purchased OriGene TP314469
T2 sequence (Q9NZ08 whole entry): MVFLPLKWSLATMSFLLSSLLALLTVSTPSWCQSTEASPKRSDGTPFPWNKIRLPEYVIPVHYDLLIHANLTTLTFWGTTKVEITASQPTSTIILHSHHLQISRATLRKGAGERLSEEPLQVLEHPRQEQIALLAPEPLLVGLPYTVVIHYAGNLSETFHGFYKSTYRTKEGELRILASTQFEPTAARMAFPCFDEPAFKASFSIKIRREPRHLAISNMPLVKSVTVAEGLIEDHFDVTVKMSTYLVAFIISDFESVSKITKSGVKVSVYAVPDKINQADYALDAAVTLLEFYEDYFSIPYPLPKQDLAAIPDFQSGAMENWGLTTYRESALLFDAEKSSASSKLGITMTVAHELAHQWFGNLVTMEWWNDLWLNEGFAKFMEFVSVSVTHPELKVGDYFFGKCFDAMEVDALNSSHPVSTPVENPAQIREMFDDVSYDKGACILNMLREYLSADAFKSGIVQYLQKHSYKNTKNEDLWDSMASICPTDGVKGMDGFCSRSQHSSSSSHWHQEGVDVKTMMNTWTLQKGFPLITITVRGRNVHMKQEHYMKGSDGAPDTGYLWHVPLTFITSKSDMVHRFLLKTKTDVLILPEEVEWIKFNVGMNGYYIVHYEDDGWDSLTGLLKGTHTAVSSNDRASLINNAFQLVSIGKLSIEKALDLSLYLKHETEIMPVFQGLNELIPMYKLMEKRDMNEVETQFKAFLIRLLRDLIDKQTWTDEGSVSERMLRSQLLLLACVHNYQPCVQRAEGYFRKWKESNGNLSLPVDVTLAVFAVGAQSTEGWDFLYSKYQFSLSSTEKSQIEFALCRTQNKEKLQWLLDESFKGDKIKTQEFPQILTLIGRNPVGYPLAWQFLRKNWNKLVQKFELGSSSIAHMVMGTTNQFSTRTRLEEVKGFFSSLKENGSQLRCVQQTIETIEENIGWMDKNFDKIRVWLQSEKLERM
Description: as §2, §3, §4

[6] = molecular target: Pv-M1 (Plasmodium vivax, UniProt A5JZA9); test: as above; assay type: biochemical, P. vivax
Chain of Pv-M1 (A5JZA9 entry or part of it): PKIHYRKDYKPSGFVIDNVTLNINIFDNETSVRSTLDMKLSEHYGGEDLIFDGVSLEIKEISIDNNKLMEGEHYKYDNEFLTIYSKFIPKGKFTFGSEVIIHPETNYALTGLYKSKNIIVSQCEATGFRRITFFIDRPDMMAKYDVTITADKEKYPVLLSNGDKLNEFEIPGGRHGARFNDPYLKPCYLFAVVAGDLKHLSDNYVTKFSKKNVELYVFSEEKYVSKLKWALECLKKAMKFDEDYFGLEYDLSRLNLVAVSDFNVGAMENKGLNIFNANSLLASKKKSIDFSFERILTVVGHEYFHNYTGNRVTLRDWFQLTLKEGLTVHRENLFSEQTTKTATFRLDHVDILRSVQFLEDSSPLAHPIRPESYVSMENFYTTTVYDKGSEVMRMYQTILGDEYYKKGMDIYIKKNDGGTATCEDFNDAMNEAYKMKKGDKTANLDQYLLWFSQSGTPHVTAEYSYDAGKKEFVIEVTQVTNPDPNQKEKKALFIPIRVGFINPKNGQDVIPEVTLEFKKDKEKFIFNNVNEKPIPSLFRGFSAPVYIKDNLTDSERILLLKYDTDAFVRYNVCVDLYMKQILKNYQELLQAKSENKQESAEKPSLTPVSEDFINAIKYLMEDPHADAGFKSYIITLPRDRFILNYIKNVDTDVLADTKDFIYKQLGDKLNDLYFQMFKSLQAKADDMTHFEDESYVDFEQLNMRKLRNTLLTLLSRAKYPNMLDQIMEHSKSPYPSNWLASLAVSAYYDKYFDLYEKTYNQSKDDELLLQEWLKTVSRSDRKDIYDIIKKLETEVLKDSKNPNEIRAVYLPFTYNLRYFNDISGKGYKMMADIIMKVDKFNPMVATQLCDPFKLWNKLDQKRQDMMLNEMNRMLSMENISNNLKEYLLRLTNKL
Description: as §2, §3, §4

[7] = molecular target: T3, human leukotriene A4 hydrolase (LTA4H) (Homo sapiens, UniProt P09960); test: Recombinant aminopeptidase fluorescence assay (H-Ala-NHMec); assay type: biochemical; details: for inhibition at 1.25 µM: 1.25 µM compound; for inhibition at 10 µM: 10 µM compound; for inhibition at 500 µM: 500 µM compound; for inhibition at 1000 µM: 1000 µM compound
T3 construct: purchased OriGene TP307617
T3 sequence (P09960 1-611): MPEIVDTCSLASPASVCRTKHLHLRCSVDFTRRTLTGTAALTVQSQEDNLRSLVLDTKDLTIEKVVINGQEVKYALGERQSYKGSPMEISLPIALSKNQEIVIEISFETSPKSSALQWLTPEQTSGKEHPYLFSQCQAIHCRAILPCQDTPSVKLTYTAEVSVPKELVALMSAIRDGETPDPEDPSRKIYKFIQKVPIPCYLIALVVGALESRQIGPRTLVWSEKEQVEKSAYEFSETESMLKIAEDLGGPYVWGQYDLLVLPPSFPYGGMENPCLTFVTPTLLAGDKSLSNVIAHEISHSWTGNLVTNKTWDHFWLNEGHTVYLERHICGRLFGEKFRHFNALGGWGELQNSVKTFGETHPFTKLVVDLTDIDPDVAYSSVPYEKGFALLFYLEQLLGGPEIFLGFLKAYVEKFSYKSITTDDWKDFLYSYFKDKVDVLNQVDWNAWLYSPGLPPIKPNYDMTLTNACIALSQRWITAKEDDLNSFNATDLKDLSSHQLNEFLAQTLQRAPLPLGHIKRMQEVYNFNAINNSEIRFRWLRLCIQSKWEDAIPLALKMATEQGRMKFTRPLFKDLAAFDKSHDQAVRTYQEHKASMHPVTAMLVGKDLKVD
Description: as §2
as §3, with “Reactions” for “The concentration of H-Leu-NHMec in the assay was held constant for each enzyme and ranged from 10 to 100 µM, depending on the enzyme. Reactions”
as §4

[8] = read-out: Inhibition of aminopeptidase activity

SMILES | IC50 [1] [nM] | IC50 [2] [nM] | inhibition at 1.25 µM [3, 8] [%] | inhibition at 1.25 µM [4] [%] | inhibition at 10 µM [4] [%] | inhibition at 500 µM [4] [%] | inhibition at 1000 µM [4] [%] | inhibition at 1.25 µM [5] [%] | inhibition at 10 µM [5] [%] | inhibition at 500 µM [5] [%] | inhibition at 1000 µM [5] [%] | inhibition at 1.25 µM [6, 8] [%] | inhibition at 10 µM [6, 8] [%] | inhibition at 1.25 µM [7] [%] | inhibition at 10 µM [7] [%] | inhibition at 500 µM [7] [%] | inhibition at 1000 µM [7] [%] | other results
CC(C)(C)CC(=O)NC(C(=O)NO)c1ccc(-c2cc(F)c(F)c(F)c2)cc1 (stereo not drawn) [MMV1557817, N-(2-(hydroxyamino)−2-oxo-1-(3′,4′,5′-trifluoro-[1,1′-biphenyl]-4-yl)ethyl)-3,3-dimethylbutanamide] | 309 | 1470 | 94 | 7 | 0 | 99.1 | 100 | 0 | 0 | 75 | 98 | 96 | 100 | 18 | 16 | 71 | 87 | Ki [3]: 2 ± 0.2 nM; inhibition at 10 µM [3, 8]: 100%; Ki [6]: 19 nM
C[C@H]1[C@H](OC(=O)CCC(=O)O)O[C@@H]2O[C@@]3(C)CC[C@H]4[C@H](C)CC[C@@H]1[C@@]24OO3 [artesunate] | 26 ± 2 | 51 ± 23 | 0 | 0 | 0 | 0 | 0 | 0 | 0 | 0 | 0 | 2.1 | 23.6 | 0 | 12.8 | 20.2 | 36 | inhibition at 10 µM ([3]; Pb-M1, 10 µM compound, read-out: Inhibition of aminopeptidase activity): 12.8%; inhibition at 500 µM [3, 8]: 81.3%; inhibition at 1000 µM [3, 8]: 78.2%; inhibition at 500 µM [6, 8]: 74%; inhibition at 1000 µM [6, 8]: 68.2%
